Measured values published in paper PMC5362899, “Structural insights into the nucleotide base specificity of P2X receptors” (Scientific Reports, 2017).

How the values were obtained:
[1] = molecular target: T1, zebrafish P2X4 (zfP2X4) WT (Danio rerio, UniProt F8W463); assay: Two Electrode Voltage Clamp recording of Xenopus oocytes expressing zebrafish P2X4 WT; assay type: cell-based; details: 1 mM nucleotide for 10 sec after prior application of 100 μM ATP; holding potential −70 mV; n = 4
T1 construct: The cRNAs encoding zebrafish P2X4 (NP_705939; WT); expressed in transfected cells; host or cells: Xenopus laevis oocytes injected with cRNA from pGEMHE
T1 sequence (F8W463 1-389): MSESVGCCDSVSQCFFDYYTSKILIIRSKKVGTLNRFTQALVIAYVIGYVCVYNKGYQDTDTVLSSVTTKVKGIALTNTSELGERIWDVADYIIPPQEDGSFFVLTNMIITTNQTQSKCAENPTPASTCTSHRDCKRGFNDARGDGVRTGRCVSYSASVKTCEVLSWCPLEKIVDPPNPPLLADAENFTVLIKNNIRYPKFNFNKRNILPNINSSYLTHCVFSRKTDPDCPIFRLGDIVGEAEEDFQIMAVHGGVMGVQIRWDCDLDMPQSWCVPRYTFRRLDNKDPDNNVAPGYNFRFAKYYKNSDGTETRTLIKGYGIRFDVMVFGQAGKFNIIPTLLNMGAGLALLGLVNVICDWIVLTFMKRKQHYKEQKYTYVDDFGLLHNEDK
Text: To assess the nucleotide base specificity of zebrafish P2X4 (zfP2X4), we first performed Two Electrode Voltage Clamp (TEVC) recording of Xenopus oocytes. As shown previously, the initial “priming” application with a low concentration of ATP increases P2X receptors sensitivity to second or more applications of ligands, which is useful for evaluating the affinity of ligands. Therefore, we expressed zfP2X4 in oocytes and recorded the zfP2X4-associated currents evoked by the application of high concentrations (1 mM) of nucleoside triphosphates (ATP, CTP, GTP and UTP), following the prior application of 100 μM ATP.
Figure 1 Current responses of zebrafish P2X4 evoked by nucleoside triphosphates. (A–D) Representative currents of zebrafish P2X4 WT, evoked first by 100 μM ATP and then by (A) 1 mM ATP, (B) 1 mM CTP, (C) 1 mM GTP and (D) 1 mM UTP. Each nucleotide was applied for 10 sec. The holding potential was −70 mV.
(§1) The cRNAs encoding zebrafish P2X4 (NP_705939; WT) and rat P2X4 (NP_113782.1; WT and mutants) were transcribed from pGEMHE plasmids, using a mMessage mMachine® T7 ULTRA kit (Ambion, Huntingdon, Cambridgeshire, UK). Xenopus laevis oocytes were prepared, and RNA (100 ng for zebrafish P2X4, and 20 ng for rat P2X4) was injected into the oocytes. The oocytes were incubated at 18 °C in Barth’s solution, containing 88 mM NaCl, 1 mM KCl, 2.4 mM NaHCO3, 10 mM HEPES, 0.33 mM Ca(NO3)2, 0.41 mM CaCl2, and 0.82 mM MgSO4, pH 7.4, supplemented with 50 μg/ml gentamicin, and were used for recording after 2–3 days. Recording solutions contained 100 mM NaCl, 5 mM HEPES, 2 mM MgCl2, pH 7.3, and nucleoside triphosphates (ATP, CTP, GTP, and UTP), which were freshly prepared each day. Oocytes were held at −70 mV with a bath-clamp amplifier (OC-725C, Warner Co., USA), and macroscopic currents were recorded and analyzed using the pClamp 10 software (Molecular Devices, USA)[33][34]. We measured n = 4 for zebrafish P2X4 data and n = 7–9 for rat P2X4 data.

[2] = molecular target: T2, rat P2X4 rH140A mutant (Rattus norvegicus, UniProt P51577, H140A); assay: Two-Electrode Voltage Clamp recording, rat P2X4 H140A mutant in Xenopus oocytes; assay type: cell-based; details: for fold reduced affinity as compared with rWT: rH140A mutant vs rWT, from EC50; for EC50 / nucleotide-evoked currents: rH140A mutant; for EC50: oocytes held at −70 mV, n = 7-8, read-out: EC50 (evoked current, dose-response); for nucleotide-evoked currents: 3 mM GTP, 3 mM UTP (Fig. S4)
T2 construct: rat P2X4 (NP_113782.1; WT and mutants) were transcribed from pGEMHE plasmids; expressed in transfected cells; host or cells: Xenopus laevis oocytes injected with cRNA from pGEMHE
T2 sequence (P51577 1-388 H140A): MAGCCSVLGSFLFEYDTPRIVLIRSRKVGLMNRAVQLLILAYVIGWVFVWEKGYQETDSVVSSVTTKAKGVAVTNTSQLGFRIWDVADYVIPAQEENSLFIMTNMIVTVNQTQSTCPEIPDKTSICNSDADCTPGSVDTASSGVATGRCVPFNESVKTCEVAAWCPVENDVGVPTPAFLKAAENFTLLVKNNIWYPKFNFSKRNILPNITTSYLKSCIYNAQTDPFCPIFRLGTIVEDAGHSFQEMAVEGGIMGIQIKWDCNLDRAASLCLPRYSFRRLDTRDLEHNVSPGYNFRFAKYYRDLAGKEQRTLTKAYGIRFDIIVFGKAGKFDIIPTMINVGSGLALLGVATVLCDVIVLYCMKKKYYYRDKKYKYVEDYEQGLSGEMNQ
Experimental: Figure 4 Current responses of ^rWT, ^rT186S, ^rH140A and ^rH140R evoked by ATP and CTP. (A,B) Representative currents of ^rWT evoked by ATP (1–300 μM) (A) and CTP (10–10,000 μM) (B). (C,D) Representative currents of the ^rT186S mutant evoked by ATP (1–300 μM) (C) and CTP (10–10,000 μM) (D). (E,F) Representative currents of the ^rH140A mutant evoked by ATP (1–300 μM) (E) and CTP (10–10,000 μM) (F). (G,H) Representative currents of the ^rH140R mutant evoked by ATP (1–300 μM) (G) and CTP (10–10,000 μM) (H). (I–K) Concentration-response curves evoked by ATP and CTP in the ^rWT and the ^rT186S mutant (I), in the ^rWT and the ^rH140A mutant (J) and in the ^rWT and the ^rH140R mutant (K). Symbols are defined in the figure, and bars depict means ± SEM (n = 7–9).
Next we assessed the functional role of R143 in zfP2X4, as its side chain forms a hydrogen bond with the cytosine ring in the CTP-bound structure (Fig. 3A,B). This arginine residue is substituted with a similar basic residue, histidine (^rH140), in rat P2X4 (Fig. 3E).
as §1

| Structure (SMILES) | zfP2X4-associated currents evoked by nucleoside triphosphate [1] | fold reduced affinity as compared with rWT [2] | EC50 [2] [mM] | nucleotide-evoked currents [2] |
| --- | --- | --- | --- | --- |
| Nc1ncnc2c1ncn2[C@@H]1O[C@H](COP(=O)(O)OP(=O)(O)OP(=O)(O)O)[C@@H](O)[C@H]1O [ATP, Adenosine 5-triphosphate] | detected specific ATP- and CTP-evoked currents | about 2.5 fold | 0.0428 ± 0.0063 |  |
| Nc1ccn([C@@H]2O[C@H](COP(=O)(O)OP(=O)(O)OP(=O)(O)O)[C@@H](O)[C@H]2O)c(=O)n1 [CTP] | detected specific ATP- and CTP-evoked currents | ~14 fold | 7.99 |  |
| Nc1nc2c(ncn2[C@@H]2O[C@H](COP(=O)(O)OP(=O)(O)OP(=O)(O)O)[C@@H](O)[C@H]2O)c(=O)[nH]1 [GTP] | not GTP- and UTP-evoked currents |  |  | no GTP- and UTP-evoked currents were detected |
| O=c1ccn([C@@H]2O[C@H](COP(=O)(O)OP(=O)(O)OP(=O)(O)O)[C@@H](O)[C@H]2O)c(=O)[nH]1 [UTP] | not GTP- and UTP-evoked currents |  |  | no GTP- and UTP-evoked currents were detected |
